Like-named read-outs stand apart in the source and are kept apart here.
Tests used:
[1] = 18-membered ring
[2] = from CC(C)(CO)Cc1c(-c2ccnc(N3CCN(C(=O)OCc4ccccc4)CC3)c2)n(C(C)(C)C#N)c2ccc(-c3csc(C[C@H](NC(=O)OC(C)(C)C)C(=O)N4CCC[C@@H](C(=O)O)N4)n3)cc12; ester bond; 18-membered ring; EDC/HOBt/DIEA; DCM; 1.05 mM

CCn1c(-c2cccnc2[C@H](C)OC)c2c3cc(ccc31)-c1csc(n1)[C@@H](OCC(F)F)[C@H](NC(=O)OC(C)(C)C)C(=O)N1CCC[C@H](N1)C(=O)OCC(C)(C)C2
ring closure, isolated yield ([1]; from CCn1c(-c2cccnc2[C@H](C)OC)c(CC(C)(C)COC(=O)[C@@H]2CCCN(C(=O)[C@@H](NC(=O)OC(C)(C)C)[C@H](OCC(F)F)c3nc(Br)cs3)N2)c2cc(B3OC(C)(C)C(C)(C)O3)ccc21, cc_pd bond, Pd(DtBPF)Cl2/K3PO4, toluene/1,4-dioxane/H2O 3:1:1, 10.0 mM, 60.0 °C, 1.0 h): 59%

CC1(C)COC(=O)[C@@H]2CCCN(N2)C(=O)[C@@H](NC(=O)OC(C)(C)C)Cc2nc(cs2)-c2ccc3c(c2)c(c(-c2ccnc(N4CCN(C(=O)OCc5ccccc5)CC4)c2)n3C(C)(C)C#N)C1
ring closure, crude yield [2]: 52%

CO[C@@H](C)c1ncccc1-c1c2c3cc(ccc3n1CCOC1CCOCC1)-c1csc(n1)C[C@H](NC(=O)OC(C)(C)C)C(=O)N1CCC[C@H](N1)C(=O)OCC(C)(C)C2
ring closure, isolated yield ([1]; from CO[C@@H](C)c1ncccc1-c1c(CC(C)(C)CO)c2cc(-c3csc(C[C@H](NC(=O)OC(C)(C)C)C(=O)N4CCC[C@@H](C(=O)O)N4)n3)ccc2n1CCOC1CCOCC1, ester bond, EDC/HOBt/DIEA, DCM, 7.0 mM): 68%

CC1(C)COC(=O)[C@@H]2CCCN(N2)C(=O)[C@@H](NC(=O)OC(C)(C)C)Cc2nc(cs2)-c2ccc3[nH]c(I)c(c3c2)C1
ring closure, isolated yield ([1]; from CC(C)(CO)Cc1c(I)[nH]c2ccc(-c3csc(C[C@H](NC(=O)OC(C)(C)C)C(=O)N4CCC[C@@H](C(=O)O)N4)n3)cc12, ester bond, EDC/HOBt/DIEA, DCM, 17.6 mM): 45.9%

CCn1c(-c2cc(N3CCN(C(=O)OCc4ccccc4)CC3)cnc2[C@H](C)OC)c2c3cc(ccc31)-c1csc(n1)C[C@H](NC(=O)OC(C)(C)C)C(=O)N1CCC[C@H](N1)C(=O)OCC(C)(C)C2
ring closure, isolated yield ([1]; from CCn1c(-c2cc(N3CCN(C(=O)OCc4ccccc4)CC3)cnc2[C@H](C)OC)c(CC(C)(C)CO)c2cc(-c3csc(C[C@H](NC(=O)OC(C)(C)C)C(=O)N4CCC[C@@H](C(=O)O)N4)n3)ccc21, ester bond, EDC/HOBt/DIEA, MeCN, 10.3 mM, 25.0 °C): 54.8%

From patent US11690915
